Data as given in patent US20100076006A1, “Topiramate Plus Naltrexone for the Treatment of Addictive Disorders” (UNIVERSITY OF VIRGINIA PATENT FOUNDATION, priority 2007, published 2010).
Structures can show the parent of a compound that is named as a salt.

Legend:
EOA and LOA alcoholics = details: ondansetron 1, 4, 16 μg/kg twice daily (particularly 4 μg/kg), compared with LOA; cited from earlier work
alcoholism treatment = details: medication alone; cited from earlier work
rhesus monkeys = assay: Naltrexone's effects on alcohol drinking in non-human primates, fixed ratio schedule of reinforcement; assay type: in vivo; details: three non food deprived rhesus monkeys, 3 hour sessions, naltrexone 0.1, 0.3, 1.0, 3.0 g/kg, water concurrently available
Method: FIG. 3 graphically illustrates the effects of Naltrexone on alcohol consumption in non-human primates (rhesus monkeys). Naltrexone was administered at 0.1 (∘), 0.3 ([…]), 1.0 (□) or 3.0 (▪) […]. The ordinate represents cumulative deliveries as percent change from baseline. The abscissa represents time in 10 minute blocks.
This study was principally conducted as a collaboration with Richard Meisch and Alan Boyle. […] During these 3 hour sessions, both water and alcohol were concurrently available.

[1] = system: alcohol-preferring (P) rats; assay: Combined topiramate and naltrexone on alcohol consumption in animal model; assay type: in vivo; details: 8 rats
Method: FIG. 8 graphically illustrates the combined effect of topiramate and naltrexone on alcohol consumption in alcohol-preferring (P) rats. Rats received either vehicle, topiramate at 5 mg/kg, topiramate at 10 mg/kg, naltrexone at 1/mg/kg and topiramate at 5 mg/kg, naltrexone at 1/mg/kg and topiramate at 10 mg/kg, or naltrexone at 1 mg/kg. Each data point represents the mean (±SE) of 8 rats as a change from baseline.
No significant differences were observed following vehicle injection. Data are plotted as change from baseline consumption, and each data point represents a mean (±SE) of 8 rats.

alcohol dependence = details: topiramate up to 300 mg per day, 12 weeks, vs. placebo; cited from earlier work

SMILES: Cc1nccn1CC1CCc2c(c3ccccc3n2C)C1=O (stereo not drawn) [ondansetron, 9-methyl-3-[(2-methyl-1H-imidazol-1-yl)methyl]-1,2,3,9-tetrahydrocarbazol-4-one]
- drinking (EOA and LOA alcoholics): significant reductions
- typical effect sizes (alcoholism treatment): 0.2±0.5

SMILES: O=C1CC[C@@]2(O)[C@H]3Cc4ccc(O)c5c4[C@@]2(CCN3CC2CC2)[C@H]1O5 [naltrexone, 17-(Cyclopropylmethyl)-4,5a-epoxy-3,14-dihydroxymorphinan-6-one hydrochloride]
- alcohol consumption (8% w/v) (rhesus monkeys): dose-dependent decreases
- alcohol consumption, change from baseline ([1]; naltrexone alone, 1 mg/kg intraperitoneally): did not affect alcohol consumption
- typical effect sizes (alcoholism treatment): 0.2±0.5

SMILES: CC1(C)O[C@@H]2[C@@H](CO[C@@]3(COS(N)(=O)=O)OC(C)(C)O[C@@H]23)O1 [topiramate, 2,3:4,5-Bis-O-(1-methylethylidene)-beta-D-fructopyranose sulfamate]
- alcohol consumption, change from baseline ([1]; topiramate alone, 10 mg/kg intraperitoneally, effect not yet significant): only modestly decreased
- craving (alcohol dependence): significantly less
- days of abstinence (alcohol dependence): significantly more
- drinks per day, drinking days, and drinks per drinking day (alcohol dependence): significantly fewer
